Test results from patent publication US10758744B2, “Combination of an oxidant and a photoactivator for the wounds” (KLOX TECHNOLOGIES INC., priority 2008, dated 2020).

Test system: Hep G2 human hepatocellular carcinoma cells
Conditions: 24 hours, 0.001 to 100 μM, compared to untreated cells
Experimental: Hep G2 cells were treated for 24 hours with increasing concentrations (0.001 to 100 μM) of Eosin Y, or left untreated (CTL).
Hep G2 cells were treated for 24 hours with increasing concentrations (0.001 to 100 μM) of Erythrosine B, or left untreated (CTL). Staurosporine (STS) was used as a positive control inducing cellular mortality.
The toxicity of the photoactivators Eosin Y and Erythrosine B was evaluated by measuring the cytotoxicity of these compounds on human cells. Hep G2 human hepatocellular carcinoma cells with an epithelial morphology were treated for 24 hours with increasing concentrations (0.001 to 100 μM) of Eosin Y or Erythrosine B, and the cellular survival was evaluated.

## CN[C@@H]1C[C@H]2O[C@@](C)([C@@H]1OC)n1c3ccccc3c3c4c(c5c6ccccc6n2c5c31)C(=O)NC4 [Staurosporine]
  cellular viability: caused a dose-dependent effect
